According to patent US12285498B2, “Pharmaceutical composition with nanoparticle-based drug delivery combined with non-invasive radiographic monitoring model” (NANOMEDTRIX, LLC, priority 2023, dated 2025):
Read-outs that look alike come from different tables or passages of the source. Each block holds one compound with its values, some of them ahead of it.

Legend:
[1] = intravenous, cited from earlier work
[2] = PK, intravenous administration of drug alone (current study); type: in vivo, rat; conditions: for Cmax: 3 mg/kg DOC, 12 mg/kg GEM, 6 mg/kg MMC; for AUC: read-out: AUC (Plasma Curves)
Method: Adult female rats are 250-300 g in body weight, or 10-15 times larger than adult C57-BI6 mice. The volume of an aqueous solution given by oral gavage procedure can be up to 5 mL/kg, thus for a 300 g rat, 1.5 mL volume is achievable (Turner, J Am Assoc Lab Anim Sci. 51(1): 25-30.). This permits a mass of 150 mg MSN, or the equivalent dose of free drug. The recommended volume of a tail vein injection is also 5 mL/kg, thus 150 mg MSN or equivalent drug can be administered by i.v. as well (https://research.unc.edu/files/2020/12/rat-handling-and-techniques.pdf).
We compared the one or 2 drugs to experiment carried out intravenous/systemic and/or intravesicular drug alone.

in vivo [3] = assay: in vivo
Text: The following discusses oral administration and detection of the drug delivered orally. There is a need for oral drug delivery, i.e., it facilitates self-medication, storage, and reduced burden on the clinician, allowing for remote monitoring.

in vivo [4] = assay: in vivo; remark: listed apart in the source
Text: Blood, urine, and stools were collected to evaluate renal and gastro-intestinal clearance of nanomaterials. Sequential and simultaneous administration of one material and before the start of another to allow full clearance.
Both strains were obtained from Inotiv (Indianapolis, IN, USA). F344 rats were instilled with rat AY27 bladder cancer cells and athymic nude rats were instilled with human male bladder cancer strains: T24 and UMUC-3. […] In these rats, blood/urine were collected, but spared from PK/PD studies to avoid confounding results. In this cohort, rats (n=3) were instilled with tumors and treated with sequential intravesical and oral drug-MSN 3-drugs load and body fluids (blood/urine) collection at the same prescribed time points. An example: four rounds of treatment were administered fluid collected n=3 samples at each time point.

[5] = rat, in vivo
[6] = oral, 50 mg/kg; cited from earlier work
[7] = known value; cited from earlier work
[8] = intravenous, cited from earlier work; remark: listed apart in the source
[9] = Comparison of AUC for drug-MSN versus drug administered alone (FIG. 7); conditions: rat, in vivo
[10] = intravenous, cited from earlier work; remark: listed apart in the source
[11] = female, rat, plasma, read-out: Cmax
[12] = female, rat, in vivo, po, 12 mg/kg
[13] = female, rat, in vivo, po, Cmax in stool
[14] = female, rat, in vivo, po, Cmax in urine
[15] = female, rat, in vivo, Cmax in stools
[16] = female, rat, in vivo, initial concentration (Cmax) in urine
[17] = female, rat, in vivo, po, 3 mg/kg

Structure (SMILES): Nc1ccn([C@@H]2O[C@H](CO)[C@@H](O)C2(F)F)c(=O)n1 [Gemcitabine]
AUC (Plasma Curves) ([1]; 15 mg/kg): 22.69 ± 4.14 µg·h/mL
Clearance ([1]; 15 mg/kg): 393.29 L/h/m^2
AUC (Plasma Curves) ([1]; 20 mg/kg): 133 ± 20 µg·h/mL
Clearance ([1]; 20 mg/kg): 89.46 L/h/m^2
AUC (Plasma Curves) ([1]; 50 mg/kg): 5031.61 ± 927.4 µg·h/mL
Clearance ([1]; 50 mg/kg): 29.56 L/h/m^2
tmax ([1]; 15-20 mg/kg): 4.98 min
Cmax [2, 11]: 1790 ng/mL
Clearance ([2]; female, rat, plasma, 12 mg/kg): 17.4 mL/min
AUC ([2]; female, rat, plasma, 12 mg/kg): 2.3 µg·h/mL
tmax ([2]; female, rat, plasma, 12 mg/kg, read-out: tmax): 15 min
AUC (in vivo [3]; [12]): 1.14 µg·h/mL
Clearance (in vivo [3]; [12]): 2.109 L/h
tmax (in vivo [3]; [12]): 30 min
Cmax (in vivo [3]; [13]): 26.1 ng/mL
Cmax (in vivo [3]; [14]): 4740 ng/mL
time of Cmax in stool (in vivo [3]; rat, in vivo, po): 6 h
plasma Cmax as % of Cmax for urine (in vivo [4]; female, rat, in vivo): ~1%
AUC (in vivo [4]; female, rat, in vivo, 12 mg/kg): 0.28 µg·h/mL
Clearance (in vivo [4]; female, rat, in vivo, 12 mg/kg): 143 mL/min
tmax (in vivo [4]; female, rat, in vivo, 12 mg/kg): 15 min
Cmax (in vivo [4]; [15]): 2.23 ng/mL
Cmax (in vivo [4]; [16]): 55600 ng/mL
time of Cmax in plasma (in vivo [4]; rat, in vivo): ≤ 15 min
time of Cmax in stools (in vivo [4]; rat, in vivo): 24 h
AUC, drug alone compared with drug-loaded MSN [5]: higher for drug alone
AUC (Plasma Curves) [6]: 16132.95 ± 5128.0 µg·h/mL
Cmax [6]: 1181.17 ± 47.1 ng/mL
tmax [6]: 90 ± 54 min
oral bioavailability [7]: 10%

Structure (SMILES): CO[C@@]12[C@H](COC(N)=O)C3=C(C(=O)C(C)=C(N)C3=O)N1C[C@@H]1N[C@@H]12 [Mitomycin C, Mitomycin c]
Cmax ([8]; 4 mg/kg): 800 ng/mL
tmax ([8]; 4 mg/kg): 15 min
Cmax ([8]; 5 mg/kg): 12800 ± 400 ng/mL
tmax ([8]; 5 mg/kg): 4.98 min
AUC, drug alone compared with drug-loaded MSN [9]: higher for drug alone
tmax [2]: 15 min
Cmax ([2]; plasma): 39.5 ng/mL
tmax (in vivo [3]; drug alone, oral, plasma): 30 min
Cmax in stool (in vivo [3]; oral administration, stool): 157.09 ng/mL
Cmax in urine (in vivo [3]; oral administration, urine): 16135.89 ng/mL
Cmax (in vivo [4]; drug alone, intravesical, 3 mg/kg DOC, 12 mg/kg GEM, 6 mg/kg MMC, plasma): 32.19 ng/mL
tmax (in vivo [4]; drug alone, intravesical, plasma): 15 min
Cmax in stools (in vivo [4]; intravesical administration, stools): 94.22 ng/mL
initial concentration (Cmax) in urine (in vivo [4]; intravesical administration, urine, 15 minutes following administration): 29498.07 ng/mL

Cmax [2, 11]: 116 ng/mL
Clearance ([2]; female, rat, plasma, 3 mg/kg): 624 mL/min
AUC ([2]; female, rat, plasma, 3 mg/kg): 0.016 µg·h/mL
tmax ([2]; female, rat, plasma, 3 mg/kg, read-out: tmax): 15 min
AUC (in vivo [3]; [17]): 0.0133 µg·h/mL
Clearance (in vivo [3]; [17]): 45.11 L/h
tmax (in vivo [3]; [17]): 60 min
Cmax (in vivo [3]; [13]): 352 ng/mL
Cmax (in vivo [3]; [14]): 413 ng/mL
time of Cmax in stool (in vivo [3]; rat, in vivo, po): 6 h
Cmax (in vivo [4]; [15]): 9.44 ng/mL
Cmax (in vivo [4]; [16]): 16600 ng/mL
detection in plasma (in vivo [4]; rat, in vivo): below the detection threshold
time of Cmax in stools (in vivo [4]; rat, in vivo): 24 h
Structure (SMILES): CC(=O)O[C@@]12CO[C@@H]1C[C@H](O)[C@@]1(C)C(=O)[C@H](O)C3=C(C)[C@@H](OC(=O)[C@H](O)[C@@H](NC(=O)OC(C)(C)C)c4ccccc4)C[C@@](O)([C@@H](OC(=O)c4ccccc4)[C@H]21)C3(C)C [Docetaxel]
AUC (Plasma Curves) ([10]; 2 mg/kg): 0.277 µg·h/mL
Cmax ([10]; 2 mg/kg): 68 ± 10 ng/mL
AUC (Plasma Curves) ([10]; 5 mg/kg): 16367.39 µg·h/mL
Cmax ([10]; 5 mg/kg): 7000 ng/mL
AUC (Plasma Curves) ([10]; 8 mg/kg): 2.2 ± 0.3 µg·h/mL
Cmax ([10]; 8 mg/kg): 950 ng/mL
oral bioavailability [7]: 10%
